“Also recorded” adds a separate entry of the source.

In data set [1] the test system is MOG35-55-induced EAE. Description: MOG35-55-induced prophylactic/therapeutic EAE model. The data set is classed as in vivo, C57BL/6 mice. The following applies: for EAE disease severity compared to the vehicle group / EAE onset compared to the vehicle group: started 7 days before EAE induction. How it is done:
The study objective was to evaluate the effects of arsenic trioxide (1 mg/ml), administered i.v., QD, starting 7 days before EAE induction, on EAE development in the MOG35-55-induced prophylactic/therapeutic EAE model, known as the more robust and direct animal model to trigger and observe the autoimmune cascade involving the central nervous system and ensuing demyelination.
EAE was induced by MOG35-55/CFA immunization and pertussis toxin injection in C57BL/6 mice.
There were 2 experimental groups with 12 mice per group. Mice were treated prophylactically.
The study used a total of 24 female C57BL/6 mice (Taconic Farms, 10 weeks old).
EAE was induced in all mice as follows:
Day 0, Hour 0—Immunization with MOG35-55/CFA
Day 0, Hour 2—Injection of pertussis toxin
Day 1, Hour 0—2nd injection of pertussis toxin (24 hours after initial immunization)
Mice were injected subcutaneously at two sites in the back with the emulsion component (containing MOG35-55) of Hooke Kit™ […] Emulsion PTX, catalog number EK-2110 (Hooke Laboratories, Lawrence Mass.). One site of injection was in the area of upper back, approximately 1 cm caudal of the neck line. The second site was in the area of lower back, approximately 2 cm cranial of the base of the tail. The injection volume was 0.1 mL at each site.
Within 2 hours of the injection of emulsion, and then again 24 hours after the injection of emulsion, the pertussis toxin component of the kit was administered intraperitoneally. The volume of each injection was 0.1 mL.
To optimize disease severity for this particular study, the pertussis toxin was administered at 165 ng/dose for the first injection and 154 ng/dose for the second injection.
There were 2 groups of 12 mice each.
Mice were assigned to groups 7 days before immunization (Day −7), balanced to achieve similar weight at the start of the study.
Treatment was according to Table 1 below.
Dosing of all mice was at the same time (+/−1 hour) on each day.
Dosing of all mice started on Day −7 (7 days before EAE induction) and continued until Day 27.
Group 2 was dosed at 2 mg/kg from Day −7 to Day −1, and at 3 mg/kg until Day 27.
Mice were scored for EAE and weighed until Day 35, the last day of the study.
Readouts were EAE scores and body weight at the end of the study.
Mice were scored daily from Day 7 after immunization until the end of the study, and body weight was measured three times/week (Monday, Wednesday and Friday), starting on Day −7.
Scoring was performed blind, by a person unaware of both treatment and of previous scores for each mouse.
EAE was scored on scale 0 to 5: • 0 No obvious changes in motor functions of the mouse in comparison to non-immunized mice. • When picked up by the tail, the tail has tension and is erect. Hind legs are usually spread apart. When the mouse is walking, there is no gait or head tilting. • 1 Limp tail. • When the mouse is picked up by the tail, instead of being erect, the whole tail drapes over finger. • 2 Limp tail and weakness of hind legs. • When mouse is picked up by tail, legs are not spread apart, but held closer together. When the mouse is observed walking, it has a clearly apparent wobbly walk. • 3 Limp tail and complete paralysis of hind legs (most common). • OR • Limp tail with paralysis of one front and one hind leg. • OR • ALL of: • Severe head tilting, • Walking only along the edges of the cage, • Pushing against the cage wall, • Spinning when picked up by the tail. • 4 Limp tail, complete hind leg and partial front leg paralysis. • Mouse is minimally moving around the cage but appears alert and feeding. • Usually, euthanasia is recommended after the mouse scores level 4 for 2 days. When the mouse is euthanized because of severe paralysis, score of 5 is entered for that mouse for the rest of the experiment. • 5 Complete hind and complete front leg paralysis, no movement around the cage. • OR • Mouse is spontaneously rolling in the cage. • OR • Mouse is found dead due to paralysis. […]

The subject of data set [2] is IL-6. Description: Cytokine production in spleen cell cultures after MOG35-55/CFA immunization (cytokine bead assay). The data set is classed as in vivo, mice. The following applies: spleen cells collected 11 days after immunization, cultured 72 hours with MOG35-55 (0, 0.7, 2.2, 6.7 and 20.0 μg/mL); treatment from Day -16. How it is done:
The objective of this study was to determine the effects of arsenic trioxide on cytokine production by T lymphocytes from draining lymph nodes and spleen after immunization with MOG35-55/CFA.
There were 2 experimental groups with 6 mice/group.
Treatment started on Day −16.
Mice were immunized with MOG35-55/CFA on Day 0.
Eleven days after immunization, mice were euthanized, spleens and lymph nodes collected and cell suspensions prepared. Cell suspensions were cultured for 3 days in the presence of multiple concentrations of MOG35-55. The culture supernatants were collected at the end of this 3-day culture period. The concentrations of 7 cytokines (IL-2, IL-4, IL-6, IL-10, IL-17A, TNF, and IFN-γ) were determined in the culture supernatants using Th1/Th2/Th17 cytokine bead assay (CBA) kit from Becton Dickinson.

Where [3] appears, read: 3 mg/kg, i.v., QD, listed as Arsenic trioxide.
Where [4] appears, read: to Day 28 (end of treatment), 3 mg/kg, i.v., QD.

On to arsenic trioxide, for which, in data set [1] (3 mg/kg, i.v., QD), the “Body weight compared to the vehicle treated controls” value is on record as “higher body weight”, the “EAE disease severity compared to the vehicle group” value is “overall severity was lower; also recorded: reducing disease severity” and the “EAE onset compared to the vehicle group” value is reported as “disease onset was postponed; also recorded: efficacious at postponing EAE onset”. For the same substance, in data set [1] (setting [3]), the “EAE disease severity compared to the vehicle group” value is given as “reducing disease severity” and the “EAE onset compared to the vehicle group” value is given as “efficacious at postponing EAE onset”. Further, the “Efficacy after the treatment was stopped” value in data set [1] (7 days after the treatment was stopped (Day 35)) is “efficacy was maintained 7 days after the treatment was stopped”. In addition, in data set [1] (Day 27, 3 mg/kg, i.v., QD), the “Day 27 % body weight +/- SD” value is given as 97.3 +/− 5.1%. Also, in data set [1] (Day 35 (end of study), 3 mg/kg, i.v., QD), the “End % body weight +/- SD” value is 93.2 +/− 6.4%. In addition, the Deaths in group entry in data set [1] (group of 12 mice, 3 mg/kg, i.v., QD, death not from EAE nor from i.v. dosing complications) was “One mouse died”. In data set [1] (to Day 28 (end of treatment), 2 mg/kg Day -7 to -1, then 3 mg/kg to Day 27, i.v., QD), the “EAE incidence (%)” value is recorded as 100%. Further, in data set [1] (setting [4]), the “Mean day of onset +/- SEM (sick mice)” value amounted to 17.5 ± 1.1 days and the “Median day of onset (all mice)” value worked out at 17.0 days. Also, the “MMS +/- SD (mean maximum score)” value in data set [1] (to Day 28 (end of treatment), EAE scale 0 to 5, 3 mg/kg, i.v., QD) is recorded as 3.41 +/− 0.30. Besides, the “IL-6 concentration in spleen cell cultures” value in data set [2] is on record as “significant reduction of IL-6 concentration”.

These data come from patent publication US10716807B2, “Method of treating relapsing-remitting multiple sclerosis using arsenic trioxide” (Medsenic, priority 2017, dated 2020).
